Counter-ions that a name gives are not always drawn.
Columns and labels:
[1] = system: Cor.4U Cardiomyocytes; test: Ca2+-fluorescence assay in human pluripotent stem cell-derived cardiomyocytes (CTCM human), Cor.4U Cardiomyocytes; type: cell-based; parameters: key: Green: No concern; Yellow: Low concern; Red: High concern; Black: Very high concern due to arrhythmic events; conditions: 30 min
Experimental: (§1) 7) Cardio-Electrophysiological Effects of the Testing Compounds in Synchronously Beating Human Pluripotent Stem Cell-Derived Cardiomyocytes (hSC-CMs) Using a Ca^2+-Fluorescence Assay (CTCM Human)
(§2) Compounds were tested in the 96-well plates
Compounds were tested at 0.1 μM, 0.2 μM, 0.5 μM, 1 μM, 2.5 μM and 5 μM (n=4 per dose) on Cor.4U 9-Cardiomyocytes or on iCell® Cardiomyocytes2 […]
(§3) Dimethylsulfoxide (DMSO). The solutions of the compound in DMSO or its solvent (final concentration of 0.1% DMSO; n=8)
(§4) Preparation of Test Article and Controls
(§5) Tested compounds were dissolved in DMSO at 1000-fold the intended concentrations. A compound “mother-plate” was made, containing the test compounds and positive and negative controls at 1000-fold the final concentrations. At the experiment day, these stock solutions were diluted with Tyrode (Sigma), supplemented with 10 mM HEPES (Gibco), to 2-fold the intended concentration (in round bottom compound plates). Final DMSO concentration in test solutions and vehicle control was 0.1%.
hSC-CMs (Cor.4U® Cardiomyocytes) were obtained from CDI (Ncardia, Germany). Cells are pre-plated and seeded in fibronectin-coated 96-well plates at a density suited to form a monolayer and maintained in culture in a stage incubator (37° C., 5% CO2), according to the instructions of the cell provider.
(§6) Before Start of Experiment
(§7) At least one hour before the start of the experiments the normal cell medium was replaced with Tyrode solution with Calcium dye (see below).
(§8) Cal 520 dye (AAT Bioquest) was dissolved in 11 ml of Tyrode supplemented with 10 mM HEPES and warmed up to 37° C. before adding to the cells.
(§9) 35 μl cell culture medium was removed from each well and replaced with 35 μl of pre-warmed Cal 520 dye solution and cell plate was incubated for 45 min at 37° C./5% CO2. Cells were incubated for 5 min at 37° C.
(§10) Spontaneous electrical activity is recorded, using Cal520™ (AAT Bioquest) calcium fluorescence-dye signaling. This dye integrates the total intracellular calcium activity over the whole well. A bottle of Cal520 dye (50 μg, MW: 1103/mol) is dissolved with 50 μl DMSO as a stock solution of 0.9 mM. 50 μL of the stock solution of the dye was added to 10 ml Tryodes solution to have dye concentration of 4.5 μM. Subsequently, 35 μl of this dye solution was added into each well, to have a final dye concentration of 1.58 μM. The current dye protocol on this CTCM human assay was established recently (Ivan Kopljar et al, Journal of Pharmacological and toxicological methods 2018. 91: 80-86; Lu et al., Tox Sci 2019. 170 (2): 345-356).
(§11) Fluorescent signals (Ca^2+ transient morphology) were measured using the Functional Drug Screen System (FDSS/μCell; Hamamatsu, Japan) and the recordings were subsequently analyzed off-line, using appropriate software e.g. Notocord.
(§12) The cell plate was loaded into the FDSS/μCell for a test run: Ca^2+ transients were measured for 4 minutes to check for synchronous beating of the cardiomyocytes in each well. All 96 wells were measured simultaneously (sampling interval: 0.06 s, short exposure time: 10 ms; excitation wavelength 480 nm; emission wavelength 540 nm; FDSS/μCell warmed to 37° C.).
(§13) During the compound addition step, 100 μl of the respective double-concentrated test solutions was pipetted into each well simultaneously.
(§14) Data were analyzed off-line using appropriate software e.g. Notocord-Hem (version 4.3).
The following parameters of the Ca^2′ transient morphology were measured: • beat rate (BR) • amplitude of the Ca^2+ transient (Amp), • CTD90: Ca^2+ transient duration at 90% (time to 90% of the initial base value).
The presence of various ‘arrhythmia-like’ activities were also noted during the experimental periods. […]

[2] = system: iCell Cardiomyocytes2; test: Ca2+-fluorescence assay in human pluripotent stem cell-derived cardiomyocytes (CTCM human), iCell Cardiomyocytes2; type: cell-based; parameters: key: Green: No concern; Yellow: Low concern; Red: High concern; Black: Very high concern due to arrhythmic events; conditions: 30 min
Experimental: as §1, §2
Compounds were tested at 0.1 μM, 0.2 μM, 0.5 μM, 1 μM, 2.5 μM and 5 μM (n=4 per dose) on Cor.4U 9-Cardiomyocytes or on iCell® Cardiomyocytes2
Alternatively, compounds were tested at 0.1 μM, 0.3 μM; 1 μM, 3 μM, 10 μM and 30 μM (n=4 per dose) mostly on iCell® Cardiomyocytes2
as §3, §4, §5
Second line hSC derived cardiomyocyte called iCell®, Cardiomyocytes2 were purchased from FUJIFILM Cellular Dynamics (USA). The experiments with test drugs are carried out 5 to 7 days after plating the cells onto the plate to have a living, beating monolayer of hiPSC-derived cardiomyocytes. The beating monolayer in 96-well-plates are normally taken from 2 Vials of frozen iCell) Cardiomyocytes2 (≈5 million cells/vial), which will be plated onto […] 96-well plates (≈50K/well).
as §6, §7, §8, §9, §10, §11, §12, §13, §14
The following parameters of the Ca^2′ transient morphology were measured: • beat rate (BR) • amplitude of the Ca^2+ transient (Amp), • CTD90: Ca^2+ transient duration at 90% (time to 90% of the initial base value). […]

CC(C)[C@@H](CCC(C)(C)N)N1CC2(CCN(c3ncnnc3Oc3ccc(F)cc3-c3cncnc3C3CC3)C2)C1 (single isomer, unassigned) [Compound 37, (*R)-5-(6-(6-(2-(4-cyclopropylpyrimidin-5-yl)-4-fluorophenoxy)-1,2,4-triazin-5-yl)-2,6-diazaspiro[3.4]octan-2-yl)-2,6-dimethylheptan-2-amine]
Green: Color @ 0.1 μM (hazard score) ([1]; 0.1 μM) | Color @ 0.2 μM (hazard score) ([1]; 0.2 μM) | Color @ 0.5 μM (hazard score) ([1]; 0.5 μM) | Color @ 1 μM (hazard score) ([1]; 1 μM) | Color @ 2.5 μM (hazard score) ([1]; 2.5 μM) | Color @ 5 μM (hazard score) ([1]; 5 μM)

CCN(C(=O)c1cc(F)ccc1Oc1nncnc1N1CCC2(C1)CN([C@H](CCCN(C)CCC(=O)N(C)C)C(C)C)C2)C(C)C [Compound 246, (R)-2-((5-(2-(6-((3-(dimethylamino)-3-oxopropyl)(methyl)amino)-2-methylhexan-3-yl)-2,6-diazaspiro[3.4]octan-6-yl)-1,2,4-triazin-6-yl)oxy)-N-ethyl-5-fluoro-N-isopropylbenzamide formate]
Green: Color @ 0.1 μM (hazard score) ([2]; iCell Cardiomyocytes2, 0.1 μM) | Color @ 0.2 μM (hazard score) ([2]; iCell Cardiomyocytes2, 0.2 μM) | Color @ 0.5 μM (hazard score) ([2]; iCell Cardiomyocytes2, 0.5 μM) | Color @ 1 μM (hazard score) ([2]; iCell Cardiomyocytes2, 1 μM) | Color @ 2.5 μM (hazard score) ([2]; iCell Cardiomyocytes2, 2.5 μM) | Color @ 5 μM (hazard score) ([2]; iCell Cardiomyocytes2, 5 μM)

From patent US12473295B2, “Substituted straight chain spiro derivatives” (Janssen Pharmaceutica NV, priority 2019, dated 2025)
